The source made the active and inactive calls. The rule behind the calls is not given here.
Target: T1, Cellular retinoic acid-binding protein 2 (Homo sapiens) (UniProt P29373)
T1 sequence (whole entry): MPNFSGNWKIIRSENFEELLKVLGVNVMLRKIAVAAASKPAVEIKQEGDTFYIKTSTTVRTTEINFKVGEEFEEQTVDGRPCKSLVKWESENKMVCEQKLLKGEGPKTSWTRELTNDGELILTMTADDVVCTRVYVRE
Assay: Displacement of DC271 from CRABP2 (unknown origin) at 200 to 1600 nM by fluorescence assay

| inhibition | SMILES |
| --- | --- |
| inactive | O=C(O)c1ccccc1 |
| inactive | CC1=C(/C=C/C(C)=C/C=C/C(C)=C\C(=O)O)C(C)(C)CCC1 |
| Active | CC1=C(/C=C/C(C)=C\C=C\C(C)=C\C(=O)O)C(C)(C)CCC1 |
| Active | CC1=C(/C=C/C(C)=C/C=C/C(C)=C/C(=O)O)C(C)(C)CCC1 |

| SMILES | inhibition |
| --- | --- |
| c1ccc2ncccc2c1 | inactive |

Target: T2, Cellular retinoic acid-binding protein 2 (Homo sapiens, UniProt P29373)
T2 sequence (P29373 whole entry): T1 sequence (whole entry)
Assay: Displacement of DC271 from CRABP2 (unknown origin) by fluorescence assay

| Kd [nM] | SMILES |
| --- | --- |
| 160 | CC1(C)CCC(C)(C)c2cc(C#Cc3ccc(C(=O)O)cc3)ccc21 |
